The values that follow come from patent US7399869B2, “Fibroblast activation protein inhibitor compounds and methods” (Genentech, Inc., priority 2005, dated 2008).

What all share (assay type): biochemical
Assay [1] addresses T1, full-length (transmembrane) murine FAP (Mus musculus, UniProt P97321).
T1 sequence (P97321 1-761): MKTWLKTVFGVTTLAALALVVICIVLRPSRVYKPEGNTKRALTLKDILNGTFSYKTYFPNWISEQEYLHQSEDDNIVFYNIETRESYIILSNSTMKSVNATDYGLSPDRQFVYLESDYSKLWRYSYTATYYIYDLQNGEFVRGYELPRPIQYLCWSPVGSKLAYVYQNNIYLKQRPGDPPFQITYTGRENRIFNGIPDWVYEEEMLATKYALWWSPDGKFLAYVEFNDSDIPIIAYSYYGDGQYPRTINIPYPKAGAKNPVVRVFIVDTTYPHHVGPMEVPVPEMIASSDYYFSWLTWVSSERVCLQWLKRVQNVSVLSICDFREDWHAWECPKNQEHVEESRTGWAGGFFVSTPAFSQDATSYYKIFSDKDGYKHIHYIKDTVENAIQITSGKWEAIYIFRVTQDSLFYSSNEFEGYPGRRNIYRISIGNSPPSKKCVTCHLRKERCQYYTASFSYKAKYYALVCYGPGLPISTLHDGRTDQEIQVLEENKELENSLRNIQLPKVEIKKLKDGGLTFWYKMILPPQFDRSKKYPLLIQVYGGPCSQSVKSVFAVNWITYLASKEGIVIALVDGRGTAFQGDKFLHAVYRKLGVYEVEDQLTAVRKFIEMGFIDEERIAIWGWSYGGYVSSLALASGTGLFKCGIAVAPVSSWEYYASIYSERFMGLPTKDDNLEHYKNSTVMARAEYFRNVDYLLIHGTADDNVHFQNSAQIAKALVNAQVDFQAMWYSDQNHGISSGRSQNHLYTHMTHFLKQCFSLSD
The experiment in a line: Inhibition of murine FAP in cell lysate.

For the next assay, the target named is T2, DPP-9 (Homo sapiens, UniProt Q86TI2).
T2 construct: 2-864 of DPP-9; FLAG (N); made in house; host or cells: 293 cells; template plasmid from Origene
T2 sequence (Q86TI2 2-863 limits assumed): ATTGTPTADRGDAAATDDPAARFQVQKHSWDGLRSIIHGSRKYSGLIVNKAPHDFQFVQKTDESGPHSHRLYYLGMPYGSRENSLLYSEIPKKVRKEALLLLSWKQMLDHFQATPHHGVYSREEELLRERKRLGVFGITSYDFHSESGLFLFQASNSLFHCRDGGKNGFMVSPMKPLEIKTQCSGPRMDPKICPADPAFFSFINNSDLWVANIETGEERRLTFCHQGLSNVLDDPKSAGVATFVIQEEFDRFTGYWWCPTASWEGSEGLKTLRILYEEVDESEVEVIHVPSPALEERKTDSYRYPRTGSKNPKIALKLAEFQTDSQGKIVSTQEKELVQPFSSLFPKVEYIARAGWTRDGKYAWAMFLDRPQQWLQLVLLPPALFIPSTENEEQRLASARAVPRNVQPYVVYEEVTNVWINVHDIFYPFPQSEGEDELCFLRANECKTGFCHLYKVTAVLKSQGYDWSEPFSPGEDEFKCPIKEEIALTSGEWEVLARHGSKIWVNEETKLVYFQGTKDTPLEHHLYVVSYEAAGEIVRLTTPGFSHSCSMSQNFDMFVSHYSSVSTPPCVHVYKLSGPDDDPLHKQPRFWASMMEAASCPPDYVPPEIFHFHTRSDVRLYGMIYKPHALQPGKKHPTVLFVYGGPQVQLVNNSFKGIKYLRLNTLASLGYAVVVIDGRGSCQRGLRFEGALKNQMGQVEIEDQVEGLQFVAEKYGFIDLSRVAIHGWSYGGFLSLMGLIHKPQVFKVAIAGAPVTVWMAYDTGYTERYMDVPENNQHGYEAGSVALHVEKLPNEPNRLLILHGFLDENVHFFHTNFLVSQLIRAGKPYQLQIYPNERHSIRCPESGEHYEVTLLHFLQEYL
Kind of assay: Inhibition of DPP-9 by Ac-Gly-boroPro 5. The method, then: (§1) To establish whether Ac-Gly-BoroPro 5 inhibits these prolyl peptidases, each protease was cloned, expressed and assayed to determine Km and Ki values and monitor their activity.
(§2) Briefly, proteases were added to a reaction mixture containing inhibitor and substrate (Ac-Ala-AMC for APH, Z-Gly-Pro-AMC for POP, and Ala-Pro-AFC for all others) in assay buffer at 23° C. Protease activity was followed continuously as described above to monitor time-dependent inhibition. Data were plotted as V0/Vi−1 versus [I], where V0 is the rate if substrate hydrolysis in the absence of inhibitor, Vi is the steady state rate of substrate hydrolysis in the presence of inhibitor and [I] is the concentration of Ac-Gly-BoroPro.
(§3) KI values for inhibition of proteases by 5 were determined using the method of progress curves. Briefly, proteases (10-100 nM) were added to a reaction mixture containing inhibitor 5 (0-10 μM) and substrate AP-AFC in assay buffer at 23° C. […] Ki, the true equilibrium inhibition constant was determined according to the following relationship: Ki=Kobs/(1+[S]/Km), where [S] is the concentration of substrate used in the assay and Km is the Michaelis constant for substrate cleavage. […]

For another assay, the target named is T3, DPP-8 (Homo sapiens, UniProt Q6V1X1).
T3 construct: 2-883 of DPP-8; FLAG (N); made in house; host or cells: 293 cells; template plasmid from Origene
T3 sequence (Q6V1X1 18-898 limits assumed): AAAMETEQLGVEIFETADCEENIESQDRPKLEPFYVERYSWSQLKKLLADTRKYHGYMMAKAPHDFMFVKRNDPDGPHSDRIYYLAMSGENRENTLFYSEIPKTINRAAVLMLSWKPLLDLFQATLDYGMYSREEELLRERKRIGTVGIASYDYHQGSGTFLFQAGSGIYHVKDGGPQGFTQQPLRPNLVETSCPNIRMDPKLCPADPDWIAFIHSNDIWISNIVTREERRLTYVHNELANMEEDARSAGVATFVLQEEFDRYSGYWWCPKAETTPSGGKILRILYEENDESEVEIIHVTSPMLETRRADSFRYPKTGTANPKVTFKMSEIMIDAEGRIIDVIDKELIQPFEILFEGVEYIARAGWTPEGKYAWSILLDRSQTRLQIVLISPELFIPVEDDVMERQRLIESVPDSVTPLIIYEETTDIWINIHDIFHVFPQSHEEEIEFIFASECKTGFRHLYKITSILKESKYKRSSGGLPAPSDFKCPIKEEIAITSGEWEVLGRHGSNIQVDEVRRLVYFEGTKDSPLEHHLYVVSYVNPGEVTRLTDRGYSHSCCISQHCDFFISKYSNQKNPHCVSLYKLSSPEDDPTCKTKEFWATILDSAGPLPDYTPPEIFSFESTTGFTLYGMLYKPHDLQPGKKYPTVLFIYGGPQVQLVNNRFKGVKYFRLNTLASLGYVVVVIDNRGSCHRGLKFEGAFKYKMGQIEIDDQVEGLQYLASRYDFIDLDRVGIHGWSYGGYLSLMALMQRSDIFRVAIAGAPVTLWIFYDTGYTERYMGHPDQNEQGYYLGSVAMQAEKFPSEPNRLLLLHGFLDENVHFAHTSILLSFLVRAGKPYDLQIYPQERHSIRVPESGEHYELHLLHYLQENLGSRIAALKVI
The experiment in a line: Inhibition of DPP-8 by Ac-Gly-boroPro 5. The method, then:
as §1, §2, §3

The target in a further assay is T4, DPP-7 (Homo sapiens, UniProt Q9UHL4).
T4 construct: These constructs encoded amino acids 26-492 of DPP-7; FLAG (N); made in house; host or cells: 293 cells; template plasmid from Origene
The experiment in a line: Inhibition of DPP-7 by Ac-Gly-boroPro 5. The following applies: substrate Ala-Pro-AFC, 23° C., progress curves. As for the experimental part:
as §1, §2, §3

The target in the next assay is T5, APH (Homo sapiens, UniProt P13798).
T5 construct: 2-732 of APH; FLAG (N); made in house; host or cells: 293 cells; template plasmid from Origene
T5 sequence (P13798 2-732): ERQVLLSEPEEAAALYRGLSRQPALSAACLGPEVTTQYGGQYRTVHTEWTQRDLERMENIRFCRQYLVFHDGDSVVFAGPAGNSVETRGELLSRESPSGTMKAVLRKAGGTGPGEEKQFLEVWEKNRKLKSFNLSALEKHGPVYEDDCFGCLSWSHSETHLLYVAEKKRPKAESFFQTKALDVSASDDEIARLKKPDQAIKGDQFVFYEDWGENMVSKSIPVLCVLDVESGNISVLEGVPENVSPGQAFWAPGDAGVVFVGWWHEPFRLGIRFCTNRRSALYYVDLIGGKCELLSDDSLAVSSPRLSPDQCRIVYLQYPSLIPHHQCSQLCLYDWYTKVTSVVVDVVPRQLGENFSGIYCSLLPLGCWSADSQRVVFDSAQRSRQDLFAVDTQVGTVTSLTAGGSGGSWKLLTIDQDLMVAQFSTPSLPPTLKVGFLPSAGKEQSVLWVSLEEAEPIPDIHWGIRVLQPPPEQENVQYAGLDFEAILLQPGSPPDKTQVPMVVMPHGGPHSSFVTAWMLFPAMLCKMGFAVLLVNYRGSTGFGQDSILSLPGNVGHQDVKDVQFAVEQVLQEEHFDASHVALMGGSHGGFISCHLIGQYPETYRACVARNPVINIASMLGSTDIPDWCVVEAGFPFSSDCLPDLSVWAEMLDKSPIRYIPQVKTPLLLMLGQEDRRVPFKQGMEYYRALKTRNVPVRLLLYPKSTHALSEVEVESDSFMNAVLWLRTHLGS
The experiment in a line: Inhibition of APH by Ac-Gly-boroPro 5. Conditions: substrate Ac-Ala-AMC, 23° C., progress curves. The method, then: as §1, §2, §3

The mark [2] stands for this setting: substrate Ala-Pro-AFC, 23° C., progress curves.

As to `CC(=O)NCC(=O)N1CCCC1B(O)O` (stereo not shown) [N-Ac-Gly-boroPro 5, N-acetyl-gly-boroproline], the “inhibits full-length (transmembrane) murine FAP at” value in assay [1] is 117 nM. Further, on DPP-9, the “reactivity with DPP-9” value is reported as “poor reactivity”. The Ki (in general, the dissociation constant of the complex between target and ligand, obtained from inhibition or displacement) on DPP-9 (setting [2]) was determined as 8.8 µM; on DPP-8 (setting [2]), 19.1 µM; on DPP-7, 125 µM; on APH it was 0.575 µM. Moreover, the “reactivity with DPP-8” value at DPP-8 is reported as “poor reactivity”.
